Measured values as given in the METLIN SMRT retention time set (Domingo-Almenara et al. 2019).

Assay: gradient 5% acetonitrile 3 min, to 50% in 2 min, to 85% in 15 min, held 3 min, 100 µL/min
Settings: column: Zorbax Extend-C18 2.1 x 50 mm; eluents: water / acetonitrile, 0.1% formic acid
How it was run: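 Standards, all pure, were combined into mixtures of ~100 molecules and run at 100 μL/min on a Zorbax Extend-C18 column (2.1 × 50 mm, 1.8 μm) with water and acetonitrile, each containing 0.1% formic acid. A coupled quadrupole time-of-flight mass spectrometer operated in positive and negative ionization mode. Retention time values come from computationally picked adduct peaks, each inspected manually.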

Row | SMILES | RP-LC retention time
1 | C=CCn1c(=O)c2ccccc2n(Cc2nc(-c3cccc(C)c3)no2)c1=O | 1080 s
2 | CNC(=O)[C@@H]1CN(C(=O)Cn2c(=O)oc3ccccc32)C[C@H]1COC | 594 s
3 | CC(NC(=O)CCCn1c2ccccc2c2cnn(C)c(=O)c21)c1ccccc1 (centres undefined) | 873 s
4 | CCCN1CCN(c2cc(C(=O)O)c3cc(NS(=O)(=O)c4ccccc4C)ccc3n2)CC1 | 605 s
5 | Cc1cc(-c2nnc(-c3ccccc3)o2)c(C)n1CC(=O)Nc1ccccc1 | 931 s
6 | Cc1ccc(Cn2nc3ccc(S(=O)(=O)N4CCCC4)cn3c2=O)cc1C | 952 s
7 | CCOC(=O)c1ccc(NC(=O)C2CCCN(S(=O)(=O)c3ccc(OC)c(Cl)c3)C2)cc1 (centres undefined) | 1060 s
8 | CCc1nnc(-c2ccc3ccn(CC(=O)Nc4ccccc4C)c3c2)o1 | 826 s
9 | Cc1cc(Cl)ccc1NC(=O)N1C[C@@H]2C[C@H]1C[C@@H]2NS(=O)(=O)c1ccccc1 | 883 s
10 | COc1ccc2[nH]cc(C3=CCNCC3)c2c1 | 648 s
11 | O=C(Nc1ccc(C(F)(F)F)cc1)NC1CCN(c2cc(N3CCOCC3)cnn2)C1 (centres undefined) | 685 s
12 | Cc1cccc(NC(=O)Cn2cnc3nc(N4CCC(C(=O)NC5CC5)CC4)sc3c2=O)c1C | 693 s
13 | COc1ccc(-c2nc3sc(C(N)=O)c(C)n3c2NC(C)(C)C)cc1 | 705 s
14 | O=C(Nc1cccc(Br)c1)NC1CCN(c2ccc(F)cc2)C1=O (centres undefined) | 818 s
15 | COC(=O)C1=CN(c2ccccc2C)c2ccccc2S1(=O)=O | 848 s
16 | CNC(=O)[C@H](Cc1c[nH]c2ccccc12)NC(=O)[C@@H](CC(=O)NO)CC(C)C | 662 s
17 | CC(C)c1noc(-c2ccc(-n3cnc(C(=O)N4CCSCC4)c3)nc2)n1 | 863 s
18 | Cn1cccc1C(=O)N1CCCCC1c1nncn1Cc1ccccc1 (centres undefined) | 745 s
19 | O=S(=O)(c1cccc(F)c1)N1CCC(c2noc(-c3ccc(F)cc3)n2)CC1 | 1110 s
20 | Cc1ccc(CN2CCC3(CC2)CC(C)(O)CCO3)nc1 (centres undefined) | 556 s
21 | CCCC(CCC)C(=O)NCCS(=O)(=O)N1CCN(c2ccccn2)CC1 | 594 s
22 | O=S(=O)(c1ccc2c(c1)CCC2)N1CCC(Cc2nncn2-c2ccccc2)C1 (centres undefined) | 846 s
23 | Cc1ccc(CNC(=O)C2CC(=O)N(c3ccc4c(c3)CCN4C(=O)C3CC3)C2)cc1 (centres undefined) | 756 s
24 | CC(C)Cn1c(CCNC(=O)c2ccc(C#N)cc2)nc2cccnc21 | 709 s
25 | O=C(c1ccccc1)N1CCCC1c1nc(-c2ccccc2Cl)no1 (centres undefined) | 978 s
26 | O=C(c1cc2ccc3cccnc3c2[nH]1)N1CCN(c2ccccn2)CC1 | 596 s

Row | SMILES | RP-LC retention time
27 | CC(NC(=O)c1cccc(N(C)C)c1)C(=O)Nc1nc2ccccc2[nH]1 (centres undefined) | 603 s
28 | Cc1ccc(N2N=C(C(=O)N3CCCC3)S(=O)(=O)c3cccnc32)cc1 | 830 s
29 | CCC(C)NC(=O)C1CCN(S(=O)(=O)c2cn(C(C)C)cn2)CC1 (centres undefined) | 669 s
30 | CCOc1ccc(NC(=O)c2cc(=O)c3cc(CC)ccc3o2)c2cccnc12 | 693 s
31 | CCn1cc(CCNC(=O)c2ccccc2C(F)(F)F)c2cccnc21 | 740 s
32 | COc1ccc(N2CCN(c3ncccc3-c3nc(-c4ccccc4)no3)CC2)cc1 | 1290 s
33 | CC(=O)c1ccc(NC(=O)Cn2c(N3CCc4ccccc4C3)nc(C)cc2=O)cc1 | 727 s
34 | COc1ccc2c(c1)C1(CCN(S(=O)(=O)c3ccc(C#N)cc3)C1)C(=O)N2C (centres undefined) | 880 s
35 | O=C(CN1CCCCC1c1nc(C2CC2)no1)Nc1cccnc1 (centres undefined) | 592 s
36 | CC1CCCN(C(=O)Cn2nc(-c3nc(-c4ccc5c(c4)OCO5)no3)ccc2=O)C1 (centres undefined) | 765 s
37 | CCC(C(=O)Nc1ccc(C)cc1)n1cnc2nc3c(cc2c1=O)CCCC3 (centres undefined) | 756 s
38 | CCN(CC)C(=O)c1ccc2c(c1)N(CC(=O)NCCOC)C(=O)C1CCCCN21 (centres undefined) | 688 s
39 | COc1ccc(NC(=O)Cn2cccc(-c3nc(-c4ccc(OC)c(OC)c4)no3)c2=O)cc1Cl | 814 s
40 | O=C(NCC#CCN1CCc2ccccc2C1)Nc1cccs1 | 557 s
41 | CCOC(=O)c1nc(Nc2ccc(OC(C)C)cc2)c2ccccc2n1 | 888 s
42 | CCOC(=O)c1c(C)c(CCC(=O)N2CCCCCC2)n(CC)c1C | 985 s
43 | CN(C)c1cccc(/C=C(\C#N)c2ccccc2)c1 | 1100 s
44 | Cc1ccc(-c2nc(-c3ccc4nncn4c3)no2)cc1 | 870 s
45 | CCOc1ccc(N2CCn3c2nn(Cc2cccc(C(F)(F)F)c2)c(=O)c3=O)cc1 | 915 s
46 | COc1ccc(-c2cc3n(n2)CCCN(C(=O)NCC2CCCO2)C3)cc1 (centres undefined) | 681 s
47 | O=C(c1ccc2ccnc(N3CCN(c4ccc(F)cc4)CC3)c2c1)N1CCCCCC1 | 816 s
48 | Cc1cc(=O)n(CC(=O)Nc2ccc(F)cc2F)c(-c2ccc(F)cc2)n1 | 1050 s
49 | CCN1CCn2cc(S(=O)(=O)N3CCN(c4ccccc4)CC3)cc2C1=O | 684 s
50 | CCN1CCCC1CNC(=O)C1CCN(S(=O)(=O)c2ccc(-c3noc(C4CC4)n3)cc2)CC1 (centres undefined) | 679 s
51 | Cn1c(=O)c2c(nc(Oc3ccccc3)n2C)n(C)c1=O | 807 s

Results, then the compound that gave them:

Row | RP-LC retention time | SMILES
52 | 565 s | CCCCN1CCN(C(=O)CCC2CCCN(c3cc(NC4CC4)ncn3)C2)CC1 (centres undefined)
53 | 946 s | CS(=O)(=O)Nc1ccc(C2(C(=O)NCc3ccccc3Cl)CCCCC2)cc1
54 | 719 s | Cc1ccc(NC(=O)N2CCCC(Cn3cnc4cccnc43)C2)cc1C (centres undefined)
55 | 1060 s | COc1ccc(C)cc1NC(=O)Cc1csc2nc(-c3cccc(Br)c3)cn12
56 | 739 s | Cc1ccccc1CNC(=O)c1ccc2c(c1)n(C)c(=O)c1ccnn12
57 | 1050 s | Cc1ccc(C)c(S(=O)(=O)N2CCC(C)(C(=O)NCc3ccccc3C)CC2)c1
58 | 732 s | CSc1cccc(NC(=O)N2CCC(c3nc(C(=O)N(C)C)c(C)o3)CC2)c1
59 | 1000 s | CCCN1C(=O)COc2ccc(-c3noc(-c4n[nH]c5c4CCCC5)n3)cc21
60 | 906 s | CCOC(=O)C1=C(C)NC2=C(C(=O)C(C(=O)OC)C(C)C2)C1c1ccccc1OCC (centres undefined)
61 | 736 s | Cc1ccc(C(C)NC(=O)C2CCN(c3ccc4nncn4n3)CC2)cc1 (centres undefined)
62 | 659 s | COc1ccc(Cl)cc1NC(=O)N1CCN(c2cc(C)nc(N3CCOCC3)n2)CC1
63 | 960 s | CSc1ccc(CNC(=O)C2CCN(c3c(C#N)cnc4ccc(Cl)cc34)CC2)cc1
64 | 845 s | Cc1[nH]c(-c2ccccc2)cc1C(=O)NC1CCCC1
65 | 705 s | CC(C)Oc1ccc(CN2CCC(C)(c3noc(C4CCOCC4)n3)CC2)cc1
66 | 818 s | C=CCn1ccc2c(OCC(=O)Nc3ccc4c(c3)OCCO4)cccc2c1=O
67 | 937 s | CCN(c1ccccc1)S(=O)(=O)c1ccc2c(c1)N(C(C)=O)CCCS2
68 | 691 s | CC(C)NCc1ccc(-c2cccc(Cl)c2)o1
69 | 1290 s | O=S(=O)(c1ccc2c(c1)CCCC2)N1CCCC1c1nc(-c2ccc(F)cc2)no1 (centres undefined)
70 | 887 s | Cc1nc(-c2cn(C)c3ncccc23)sc1C(=O)NCc1ccc(F)cc1F

Row | RP-LC retention time | SMILES
71 | 636 s | Cc1ccc(NC(=O)N2CCN(CCn3cnc4cccnc43)CC2)cc1Cl
72 | 990 s | Cc1[nH]c(-c2ccc(Cl)cc2)cc1C(=O)NC1CCCCC1
73 | 686 s | O=C(Cc1ccc(NC(=O)c2ccc(F)c(F)c2)cc1)NC1CC1
74 | 692 s | Cc1ccc2c(=O)c(C(=O)N3CCCC3)cn(CC(=O)Nc3ccccc3C)c2n1
75 | 769 s | CC(=O)c1ccc(NC(=O)CCc2c(C)nn(-c3cc(N4CCCC4)ncn3)c2C)cc1
76 | 912 s | COc1ccc(S(=O)(=O)N2CCC(C(=O)NCCc3csc(-c4ccccc4)n3)CC2)cc1
77 | 891 s | COc1ccc(N2CC(c3nc(-c4ccc5c(c4)OCO5)no3)CC2=O)cc1 (centres undefined)
78 | 1150 s | CC(C)(C)c1noc(-c2ccc(=O)n(Cc3cccc(Cl)c3)n2)n1
79 | 662 s | Cc1noc(C)c1CCC(=O)N1CCCC1CCc1ncc(C)n1CC1CC1 (centres undefined)
80 | 879 s | CC(=O)N1c2ccc(S(=O)(=O)N3CCCCC3)cc2CC1C(=O)NCc1ccc(N(C)C)cc1 (centres undefined)
81 | 871 s | O=c1c2ccccc2ncn1Cc1noc(Cc2ccc(Br)cc2)n1
82 | 680 s | CCC(C(=O)Nc1cc(-c2cn3cccnc3n2)ccc1C)c1ccccc1 (centres undefined)
83 | 669 s | CCCNC(=O)C1CCCN(c2nc3ncn(CC(=O)NCc4ccccc4)c(=O)c3s2)C1 (centres undefined)
84 | 579 s | CNC(=O)NC(=O)COc1cc(=O)n2cccc(C)c2n1
85 | 1150 s | CCOC(=O)c1noc2ncnc(N3CCN(c4cccc(Cl)c4)CC3)c12
86 | 690 s | Cc1ccc(Cn2cccc2C(=O)C(=O)N2CCN(c3ccccn3)CC2)cc1
87 | 840 s | CCCn1cc(C(=O)N2CCc3ccccc32)c2nn(-c3ccccc3)c(=O)c-2c1
88 | 1110 s | Cc1cc(C)cc(NS(=O)(=O)c2c(C)sc(C)c2-c2n[nH]c(C)c2C)c1
89 | 1020 s | C[C@H]1CN(C(=O)Cc2ccccc2F)C[C@@H]1c1nc(-c2ccccc2)no1
